Counter-ions that a name gives are not always drawn.
target: truncated PI3Kα (p110α/iSH2 p85α) (Homo sapiens (Human), UniProt P42336); test: PI3KA_Act fluorescence polarization kinase assay (Ki); format: biochemical; conditions: 1 mM ATP
Excerpt: 2) p110α-iSH2 p85α Complex (Full Length p110α and p85α iSH2)(“PI3KA_Act”)
Genes encoding for full length p110α and p85α nSH-iSH2=niSH2 (p85a aminoacids 322-600) subunits of PI3Kα complex were subcloned from existing constructs into pFASTBAC Dual vector (Life Technologies, Carlsbad, Calif.) using standard cloning procedures. Gene encoding p110α subunit was subcloned into polyhedrine promoter while gene encoding p85α niSH2 domains was subcloned into p10 promoter. Additionally, Human Rhinovirus 3C Protease (“HRV 3C”) site was introduced between nSH2 and iSH2, replacing aminoacids 431-438 of p85α with […] HRV 3C recognition sequence, using standard QuickChange mutagenesis protocol (Agilent Technologies, CA). Recombinant baculovirus was generated using Bac-to-Bac protocol (Life Technologies, Carlsbad, Calif.). Large scale expression was conducted in Sf21 (Life Technologies, Carlsbad, Calif.) cells at a multiplicity of infection (“MOI”)=1 for 48 hours. Cells were lyzed in 50 mM Tris pH 8.0, 250 mM NaCl, 5% glycerol, 0.25 mM TCEP, and 20 mM imidazole. The p110α-niSH2 p85α complex was purified from clarified supernatant using Immobilized Metalo Affinity Chromatography (“IMAC”). The protein was eluted from the column using 50 mM Tris pH 8.0, 200 mM NaCl, 0.25 mM TCEP, and 200 mM imidazole. Following elution p110α-niSH2 p85α complex was dialyzed against 4 liters of 50 mM Tris pH 8.0, 200 mM NaCl, 0.25 mM TCEP, and 40 mM imidazole in the presence of PreScission Protease (1:70 molar ratio of Protease to Protein) and TEV protease (1:40 molar ratio protease to protein) for 16 hours at 4° C. The protein was further purified using reverse IMAC to remove cleaved histidine tag and contaminants captured during initial IMAC purification. The mixture of p110α-iSH2 p85α complex and cleaved nSH2 was recovered in reverse IMAC 40 mM imidazole flow through and 60 mM imidazole wash fractions. Those fractions were pulled together and loaded on Superdex 200 26/60 SEC column equilibrated in 25 mM Tris, pH 8.0, 100 mM NaCl, 2% glycerol, and 2 mM TCEP. Following SEC, chromatography peak fractions containing p110α-iSH2 p85α complex were pulled and concentrated to 4.3 mg/mL. Purity and integrity of the complex was confirmed using LCMS, analytical SEC and SDS-PAGE (sodium dodecyl sulfate polyacrylamide gel electrophoresis) analysis.
The biochemical assays of kinase activity of full-length PI3Kα (full-length p110α/p85a) or truncated PI3Kα (p110α/iSH2 p85a) were conducted using a fluorescence polarization format similar to the procedure of Yuan J., et al., (2011) “PF-04691502, a Potent and Selective Oral Inhibitor of PI3K and mTOR Kinases with Antitumor Activity”, Mol Cancer Ther. 10, 2189-2199. The enzymatic reactions were conducted in 50 μL volumes in 96-well plates. The reactions contained human recombinant PI3Kα (2 nM full-length p110α/p85α or 0.5 nM p110α/iSH2 p85) and 30 μM phosphatidylinositol 4,5-bisphosphate (“PIP2”) (Cayman Chemical Company, Ann Arbor, Mich.) and were sonicated for 1 minute prior to adding PI3Kα enzyme (PI3KA_Act or PI3KA_FL), DMSO or test compound (12-point 3-fold serial dilution, 3 μM top dose, 2° A) DMSO final concentration), 5 mM MgCl2, 50 mM HEPES pH 7.4, 150 mM NaCl, 1 mM DTT ((2S,3S)-1,4-bis(sulfanyl)butane-2,3-diol), and 0.05% 3-[(3-cholamidopropyl)dimethylammonio]-1-propanesulfonate (“CHAPS”). […] The reactions were incubated for 30 min at room temperature, stopped with EDTA pH 8 (10 mM final concentration). In a detection plate, 15 μL of detector/probe mixture, containing 480 nM GST-Grp1 PH domain protein (University of Dundee, Dundee, UK) and 12 nM carboxytetramethylrhodamine (“TAMRA”)-tagged fluorescent phosphatidylinositol (3,4,5)-triphosphate (“PIP3”) (Echelon Biosciences, Inc., Salt Lake City, Utah) in assay buffer, was mixed with 15 μL of kinase reaction mixture. The plate was shaken for 30 minutes and fluorescence polarization values were measured on an LJL Analyst HT plate reader (Molecular Devices, Sunnyvale, Calif.). […]

Chain of truncated PI3Kα (p110α/iSH2 p85α) (P42336 whole entry, the tested form may be a part): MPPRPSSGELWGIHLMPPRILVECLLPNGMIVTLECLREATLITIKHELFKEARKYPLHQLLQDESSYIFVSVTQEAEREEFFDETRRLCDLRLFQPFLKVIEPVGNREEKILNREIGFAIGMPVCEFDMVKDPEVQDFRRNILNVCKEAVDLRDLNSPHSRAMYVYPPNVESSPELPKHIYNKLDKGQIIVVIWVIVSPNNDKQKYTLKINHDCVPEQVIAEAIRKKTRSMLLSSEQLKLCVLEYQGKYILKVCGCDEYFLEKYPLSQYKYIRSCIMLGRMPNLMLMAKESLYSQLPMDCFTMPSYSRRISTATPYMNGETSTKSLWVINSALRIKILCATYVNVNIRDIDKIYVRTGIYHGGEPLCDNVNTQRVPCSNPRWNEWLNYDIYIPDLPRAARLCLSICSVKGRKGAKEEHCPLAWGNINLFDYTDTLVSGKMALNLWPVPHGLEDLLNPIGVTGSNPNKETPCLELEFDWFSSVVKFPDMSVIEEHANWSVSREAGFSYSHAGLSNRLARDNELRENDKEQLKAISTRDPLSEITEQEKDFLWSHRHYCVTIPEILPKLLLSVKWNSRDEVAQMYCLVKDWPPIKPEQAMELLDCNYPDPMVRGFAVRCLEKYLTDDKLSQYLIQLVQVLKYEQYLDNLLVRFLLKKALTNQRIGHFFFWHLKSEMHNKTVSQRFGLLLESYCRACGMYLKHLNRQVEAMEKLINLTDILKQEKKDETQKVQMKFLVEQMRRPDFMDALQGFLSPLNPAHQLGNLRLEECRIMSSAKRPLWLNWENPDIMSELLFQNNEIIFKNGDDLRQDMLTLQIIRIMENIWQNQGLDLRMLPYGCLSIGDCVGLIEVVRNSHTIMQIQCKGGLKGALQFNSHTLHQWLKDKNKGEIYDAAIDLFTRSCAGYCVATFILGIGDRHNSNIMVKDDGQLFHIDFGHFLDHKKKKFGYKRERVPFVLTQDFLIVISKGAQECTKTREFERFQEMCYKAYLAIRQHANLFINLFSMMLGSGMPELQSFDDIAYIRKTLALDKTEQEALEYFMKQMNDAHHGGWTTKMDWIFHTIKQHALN

Compound | Ki [pM] | PI3KA_Act Ki [pM]
C[C@]1(N2CCc3c(-c4cnc(N)nc4)nc(N4CCOCC4)nc32)CCN(C2CCNC2=O)C1 (stereo partly drawn) [Example 6, (3S)-3-[4-(2-aminopyrimidin-5-yl)-2-(morpholin-4-yl)-5,6-dihydro-7H-pyrrolo[2,3-d]pyrimidin-7-yl]-3-methyl-1,3′-bipyrrolidin-2′-one] | 96 | 
CC1(C)CN=C(N2CC[C@](C)(N3CCc4c(-c5cnc(N)nc5)nc(N5CCOCC5)nc43)C2)O1 [Example 8, 5-{7-[(3S)-1-(5,5-dimethyl-4,5-dihydro-1,3-oxazol-2-yl)-3-methylpyrrolidin-3-yl]-2-(morpholin-4-yl)-6,7-dihydro-5H-pyrrolo[2,3-d]pyrimidin-4-yl}pyrimidin-2-amine] |  | 19
CC1(C)COC(N2CC[C@](C)(N3CCc4c(-c5cnc(N)nc5)nc(N5CCOCC5)nc43)C2)=N1 [Example 9, 5-{7-[(3S)-1-(4,4-dimethyl-4,5-dihydro-1,3-oxazol-2-yl)-3-methylpyrrolidin-3-yl]-2-(morpholin-4-yl)-6,7-dihydro-5H-pyrrolo[2,3-d]pyrimidin-4-yl}pyrimidin-2-amine] |  | <18
[2H]C1([2H])OC([2H])([2H])C([2H])([2H])N(c2nc(-c3cnc(N)nc3)c3c(n2)N([C@@]2(C)CCN(C(=O)C(C)(C)N)C2)CC3)C1([2H])[2H] [Example 10, (S)-2-amino-1-(3-(4-(2-aminopyrimidin-5-yl)-2-morpholino-d8)-5,6-dihydro-7H-pyrrolo[2,3-d]pyrimidin-7-yl)-3-methylpyrrolidin-1-yl)-2-methylpropan-1-one hydrochloride] | < 18 | 
C[C@H]1COCCN1c1nc(-c2cnc(N)nc2)c2c(n1)N([C@H]1CCN(C(=O)NC(C)(C)C)C1)CC2 [Example 140] |  | 318
C[C@H]1COCCN1c1nc(-c2cnc(N)nc2)c2c(n1)N(C1CN(C(=O)OC(C)(C)C)C1)CC2 [Example 141] |  | 471
CNC(=O)COC(=O)N1CC(N2CCc3c(-c4cnc(N)nc4)nc(N4CCOCC4)nc32)C1 [Example 142] |  | 159
CNC(=O)COC(=O)N1CC(N2CCc3c(-c4cnc(N)nc4)nc(N4CCOC[C@@H]4C)nc32)C1 [Example 143] |  | 262
CNS(=O)(=O)N1CC[C@H](N2CCc3c(-c4cnc(N)nc4)nc(N4CCOC[C@H]4C)nc32)C1 [Example 144] |  | 3251
C[C@@H]1COCCN1c1nc(-c2cnc(N)nc2)c2c(n1)N([C@H]1CCN(S(C)(=O)=O)C1)CC2 [Example 145] |  | 4011
CNS(=O)(=O)N1CC(N2CCc3c(-c4cnc(N)nc4)nc(N4CCOCC4)nc32)C1 [Example 147] |  | 64
CNS(=O)(=O)NCCOC(=O)N1CC(N2CCc3c(-c4cnc(N)nc4)nc(N4CCOCC4)nc32)C1 [Example 148] |  | 94
C[C@]1(N2CCc3c(-c4cnc(N)nc4)nc(N4CCOCC4)nc32)CCN(S(C)(=O)=O)C1 [Example 149] |  | 27
C[C@@]1(N2CCc3c(-c4cnc(N)nc4)nc(N4CCOCC4)nc32)CCN(S(C)(=O)=O)C1 [Example 150] |  | 44
CN(C)C(=O)COC(=O)N1CC(N2CCc3c(-c4cnc(N)nc4)nc(N4CCOCC4)nc32)C1 [Example 151] |  | 107
C[C@H]1COCCN1c1nc(-c2cnc(N)nc2)c2c(n1)N(C1CN(C(=O)OCC(=O)N(C)C)C1)CC2 [Example 152] |  | 103
COCCCS(=O)(=O)N1CC(N2CCc3c(-c4cnc(N)nc4)nc(N4CCOC[C@@H]4C)nc32)C1 [Example 153] |  | 105
C[C@H]1COCCN1c1nc(-c2cnc(N)nc2)c2c(n1)N(C1CN(S(=O)(=O)c3cn(C)cn3)C1)CC2 [Example 154] |  | 286
COCCS(=O)(=O)N1CC(N2CCc3c(-c4cnc(N)nc4)nc(N4CCOC[C@@H]4C)nc32)C1 [Example 155] |  | 116
C[C@H]1COCCN1c1nc(-c2cnc(N)nc2)c2c(n1)N([C@H]1CCN(C(=O)OC3COC3)C1)CC2 [Example 156] |  | 88
C[C@H]1COCCN1c1nc(-c2cnc(N)nc2)c2c(n1)N(C(C)(C)C)CC2 [Example 157] |  | 173

Compound | Ki [pM] | PI3KA_Act Ki [pM]
Nc1ncc(-c2nc(N3CCOCC3)nc3c2CCN3C23CC(C2)C3)cn1 [Example 158] |  | 200
C[C@H]1COCCN1c1nc(-c2cnc(N)nc2)c2c(n1)N(C1CN(S(=O)(=O)CC3CC3)C1)CC2 [Example 159] |  | 97
C[C@H]1COCCN1c1nc(-c2cnc(N)nc2)c2c(n1)N(C1CN(S(=O)(=O)c3cnn(C)c3)C1)CC2 [Example 160] |  | 221
COCCCS(=O)(=O)N1CC(N2CCc3c(-c4cnc(N)nc4)nc(N4CCOCC4)nc32)C1 [Example 161] |  | 202
C[C@H]1COCCN1c1nc(-c2cnc(N)nc2)c2c(n1)N(C1CN(S(=O)(=O)C(F)(F)F)C1)CC2 [Example 163] |  | 188
C[C@H]1COCCN1c1nc(-c2cnc(N)nc2)c2c(n1)N(C1(C)CCN(S(C)(=O)=O)C1)CC2 (some centres unmarked) [Example 164] |  | 30
COC(=O)C(C)(C)N1CCc2c(-c3cnc(N)nc3)nc(N3CCOCC3)nc21 [Example 165] |  | 449
C[C@H]1COCCN1c1nc(-c2cnc(N)nc2)c2c(n1)N(C1CN(P(C)(C)=O)C1)CC2 [Example 166] |  | 280
C[C@H](O)COC(=O)N1CC(N2CCc3c(-c4cnc(N)nc4)nc(N4CCOCC4)nc32)C1 [Example 167] |  | 230
C[C@H]1COCCN1c1nc(-c2cnc(N)nc2)c2c(n1)N([C@H]1CCN(P(C)(C)=O)C1)CC2 [Example 168] |  | 297
Nc1ncc(-c2nc(N3CCOCC3)nc3c2CCN3C2CN(S(=O)(=O)CC3CC3)C2)cn1 [Example 169] |  | 129
COCCS(=O)(=O)N1CC(N2CCc3c(-c4cnc(N)nc4)nc(N4CCOCC4)nc32)C1 [Example 170] |  | 124
Nc1ncc(-c2nc(N3CCOC[C@@H]3CO)nc3c2CCN3C2CC(F)(F)C2)cn1 [Example 171] |  | 2745
CNS(=O)(=O)N1CC[C@@](C)(N2CCc3c(-c4cnc(N)nc4)nc(N4CCOCC4)nc32)C1 [Example 172] |  | 29
CNS(=O)(=O)N1CC[C@](C)(N2CCc3c(-c4cnc(N)nc4)nc(N4CCOCC4)nc32)C1 [Example 173] |  | <18
C[C@H]1COCCN1c1nc(-c2cnc(N)nc2)c2c(n1)N([C@]1(C)CCN(S(C)(=O)=O)C1)CC2 [Example 174] |  | 30
C[C@H]1COCCN1c1nc(-c2cnc(N)nc2)c2c(n1)N([C@@]1(C)CCN(S(C)(=O)=O)C1)CC2 [Example 175] |  | 23
CC(C)C(C)(C)N1CCc2c(-c3cnc(N)nc3)nc(N3CCOCC3)nc21 [Example 176] |  | 462
C[C@H]1COCCN1c1nc(-c2cnc(N)nc2)c2c(n1)N([C@@H]1CCN(P(C)(C)=O)C1)CC2 [Example 177] |  | 615
Cn1cc(S(=O)(=O)N2CC(N3CCc4c(-c5cnc(N)nc5)nc(N5CCOCC5)nc43)C2)cn1 [Example 178] |  | 125

— patent publication US9260439B2, “Dihydropyrrolopyrimidine derivatives” (PFIZER INC., priority 2014, dated 2016)
